≈ marks a conversion by molar mass, not a printed value. Where two headings read alike, the source gives them in different places. One block for each compound: values may come before it.
Assays:
[1] = test system: protein product expressed by the gene target; details: cited from earlier work
[2] = Kinetic solubility in aqueous buffer pH 7.4 by total chemiluminescent nitrogen determination (Analiza); details: aqueous buffer, pH 7.4, aqueous buffer, kinetic from dmso stock
[3] = test system: HMC3 (human microglia) cell line; experiment: pHrodo-myelin phagocytosis/cell viability high content imaging assay: phagocytosis signal; type: cell-based
How it was run: (§1)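 Phagocytosis and cell viability were measured together by high content imaging about 22 hours after pHrodo-myelin addition. Three measurements were extracted from the images. Intensity increase and decrease were taken as early and later apoptosis, respectively.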

[4] = test system: BV2 (mouse microglia) cell line; experiment: pHrodo-myelin phagocytosis/cell viability high content imaging assay: viability (cell count, nuclear area, nuclear intensity); details: for 1. Cell count (% control) / 2. Nuclear Area (% Control) / 3. Nuclear DNA Intensity (% control): 48 hours treatment
How it was run: (§2)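 Viability was read by high-content imaging as cell count per well and nuclear intensity per cell, in murine BV2 and human HMC3 microglial lines. Cells received a single 10 μM compound dose for 48 h, including 20 h with pHrodo-myelin. Duplicate means are expressed as % of untreated control.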

[5] = test system: HMC3 (human microglia) cell line; experiment: as above; details: for 1. Cell count (% control) / 2. Nuclear Area (% Control) / 3. Nuclear DNA Intensity (% control): 48 hours treatment
How it was run: as §2

[6] = test system: BV2 (mouse microglia) cell line; experiment: pHrodo-myelin phagocytosis/cell viability high content imaging assay: phagocytosis signal; type: cell-based
How it was run: as §1

cellular system = details: cited from earlier work
[7] = gene target APP, ref PubMed 22323718

solubility kinetic [2]: 31.1 µM (≈ 9.81 µg/mL)
Compound: C[C@H](N/C(=N\c1cccc2ncccc12)NC#N)c1ccccc1 [A-804598]
Reported on-target biochemical potency ([1]; target P2X7, ref PubMed 18602931, 28716092, 28871219, 29934546): 10 nM
Inhibition of human microglial phagocytosis at 10 μM (<70% control) ([3]; 10 μM, HMC3): Y (The compound was found to inhibit phagocytosis (response threshold: <70% control) when human immortalized microglial cells were dosed at 10 μM (Y: yes))

Compound: Nc1nc(Nc2ccc3c(c2)CC[C@@H](N2CCCC2)CC3)nn1-c1cc2c(nn1)-c1ccccc1CCC2 [Bemcentinib (BGB324)]
Mouse microglial cytotoxicity at 10 μM (<70% control) ([4]; BV2, 10 μM): Y (The compound was found to be cytotoxic (cell count threshold: <70% control) when murine immortalized microglial cells were dosed at 10 μM (Y: yes))
Human microglial cytotoxicity at 10 μM (<70% control) ([5]; HMC3, 10 μM): Y (The compound was found to be cytotoxic (cell count threshold: <70% control) when human immortalized microglial cells were dosed at 10 μM (Y: yes))
Reported on-target biochemical potency [1]: 14 nM
solubility kinetic [2]: 82.9 µM (≈ 42 µg/mL)
Inhibition of mouse microglial phagocytosis at 10 μM (<70% control) ([6]; BV2, 10 μM): Y (The compound was found to inhibit phagocytosis (response threshold: <70% control) when murine immortalized microglial cells were dosed at 10 μM (Y: yes))
Inhibition of human microglial phagocytosis at 10 μM (<70% control) ([3]; HMC3, 10 μM): Y (The compound was found to inhibit phagocytosis (response threshold: <70% control) when human immortalized microglial cells were dosed at 10 μM (Y: yes))

Compound: CC(=O)N1CCN(c2ccc(OCC3COC(Cn4ccnc4)(c4ccc(Cl)cc4Cl)O3)cc2)CC1 (stereo not shown) [Ketoconazole]
Reported on-target biochemical potency [1]: 64000 nM
Reported as cell active (<10 μM) (cellular system): Y (key: Published data supports that the compound is active in a cellular system when dosed at 10 μM (Y/N); Published data supports that the compound is active in a cellular system when dosed at 10 μM (Y/N))
solubility kinetic [2]: 120 µM (≈ 63.6 µg/mL)
Stimulation of mouse microglial phagocytosis at 10 μM (>150% control) ([6]; BV2, 10 μM): Y (The compound was found to stimulate phagocytosis (response threshold: >150% control) when murine immortalized microglial cells were dosed at 10 μM (Y: yes))

solubility kinetic [2]: 0.6 µM (≈ 0.225 µg/mL)
Compound: Cc1ccc(F)c(NC(=O)Nc2ccc(-c3cccc4[nH]nc(N)c34)cc2)c1 [Linifanib]
Mouse microglial cytotoxicity at 10 μM (<70% control) ([4]; BV2, 10 μM): Y (The compound was found to be cytotoxic (cell count threshold: <70% control) when murine immortalized microglial cells were dosed at 10 μM (Y: yes))
Human microglial cytotoxicity at 10 μM (<70% control) ([5]; HMC3, 10 μM): Y (The compound was found to be cytotoxic (cell count threshold: <70% control) when human immortalized microglial cells were dosed at 10 μM (Y: yes))
Reported on-target biochemical potency ([1]; gene target CYP19A1, ref Probe Miner): 5 nM
Stimulation of mouse microglial phagocytosis at 10 μM (>150% control) ([6]; BV2, 10 μM): Y (The compound was found to stimulate phagocytosis (response threshold: >150% control) when murine immortalized microglial cells were dosed at 10 μM (Y: yes))
Inhibition of human microglial phagocytosis at 10 μM (<70% control) ([3]; HMC3, 10 μM): Y (The compound was found to inhibit phagocytosis (response threshold: <70% control) when human immortalized microglial cells were dosed at 10 μM (Y: yes))

solubility kinetic [2]: 93.9 µM (≈ 46.8 µg/mL)
Compound: Cc1ccc(NC(=O)c2ccc(CN3CCN(C)CC3)cc2)cc1Nc1nc(-c2cccnc2)cs1 [Masitinib (AB1010)]
Mouse microglial cytotoxicity at 10 μM (<70% control) ([4]; 10 μM, BV2): Y (The compound was found to be cytotoxic (cell count threshold: <70% control) when murine immortalized microglial cells were dosed at 10 μM (Y: yes))
Reported on-target biochemical potency ([1]; target KIT, ref PubMed PMC2746281): 200 nM
Reported on-target biochemical potency ([1]; target LYN, ref PubMed PMC2746281): 510 nM
Reported on-target biochemical potency ([1]; target PDGFRα, ref PubMed PMC2746281): 540 nM
Reported on-target biochemical potency ([1]; target PDGFRβ, ref PubMed PMC2746281): 800 nM
Inhibition of mouse microglial phagocytosis at 10 μM (<70% control) ([6]; 10 μM, BV2): Y (The compound was found to inhibit phagocytosis (response threshold: <70% control) when murine immortalized microglial cells were dosed at 10 μM (Y: yes))
Inhibition of human microglial phagocytosis at 10 μM (<70% control) ([3]; 10 μM, HMC3): Y (The compound was found to inhibit phagocytosis (response threshold: <70% control) when human immortalized microglial cells were dosed at 10 μM (Y: yes))

solubility kinetic [2]: 176 µM (≈ 63.8 µg/mL)
Compound: CC(C)[C@H](O)C(=O)N[C@@H](C)C(=O)N[C@@H]1C(=O)N(C)CCc2ccccc21 [Semagacestat (LY450139)]
Reported on-target biochemical potency (nM): Aβ38 [1, 7]: 12 nM
Reported on-target biochemical potency (nM): Aβ40 [1, 7]: 12.1 nM
Reported on-target biochemical potency (nM): Aβ42 [1, 7]: 10.9 nM
Stimulation of mouse microglial phagocytosis at 10 μM (>150% control) ([6]; BV2, 10 μM): Y (The compound was found to stimulate phagocytosis (response threshold: >150% control) when murine immortalized microglial cells were dosed at 10 μM (Y: yes))

solubility kinetic [2]: 115 µM
Compound: CN(C)c1ccc2c(c1)Sc1cc(N(C)C)ccc1N2.CS(=O)(=O)O.CS(=O)(=O)O [TRx0237 (LMTX) mesylate]
Mouse microglial cytotoxicity at 10 μM (<70% control) ([4]; 10 μM, BV2): Y (The compound was found to be cytotoxic (cell count threshold: <70% control) when murine immortalized microglial cells were dosed at 10 μM (Y: yes))
Human microglial cytotoxicity at 10 μM (<70% control) ([5]; 10 μM, HMC3): Y (The compound was found to be cytotoxic (cell count threshold: <70% control) when human immortalized microglial cells were dosed at 10 μM (Y: yes))
Reported on-target biochemical potency ([1]; target gene MAPT, ref PubMed 26809554): 160 nM
Inhibition of human microglial phagocytosis at 10 μM (<70% control) ([3]; 10 μM, HMC3): Y (The compound was found to inhibit phagocytosis (response threshold: <70% control) when human immortalized microglial cells were dosed at 10 μM (Y: yes))

Compound: CN1CCN(CCCN2c3ccccc3Sc3ccc(C(F)(F)F)cc32)CC1 [Trifluoperazine]
Mouse microglial cytotoxicity at 10 μM (<70% control) ([4]; 10 μM, BV2): Y (The compound was found to be cytotoxic (cell count threshold: <70% control) when murine immortalized microglial cells were dosed at 10 μM (Y: yes))
Reported on-target biochemical potency [1]: 5200 nM
Reported as cell active (<10 μM) (cellular system): Y (key: Published data supports that the compound is active in a cellular system when dosed at 10 μM (Y/N); Published data supports that the compound is active in a cellular system when dosed at 10 μM (Y/N))
Inhibition of human microglial phagocytosis at 10 μM (<70% control) ([3]; 10 μM, HMC3): Y (The compound was found to inhibit phagocytosis (response threshold: <70% control) when human immortalized microglial cells were dosed at 10 μM (Y: yes))

Compound: CCCCNc1ncc2c(-c3ccc(CN4CCN(C)CC4)cc3)cn([C@H]3CC[C@H](O)CC3)c2n1 [UNC2025C, reference compound]
Mouse microglial cytotoxicity at 10 μM (<70% control) ([4]; 10 μM, BV2): Y (The compound was found to be cytotoxic (cell count threshold: <70% control) when murine immortalized microglial cells were dosed at 10 μM (Y: yes))
1. Cell count (% control) ([4]; BV2 cells, 10 uM compound): 17.3 % control
2. Nuclear Area (% Control) ([4]; BV2 cells, 10 uM compound): 101.1 % Control
3. Nuclear DNA Intensity (% control) ([4]; BV2 cells, 10 uM compound): 19.1 % control
Human microglial cytotoxicity at 10 μM (<70% control) ([5]; 10 μM, HMC3): Y (The compound was found to be cytotoxic (cell count threshold: <70% control) when human immortalized microglial cells were dosed at 10 μM (Y: yes))
1. Cell count (% control) ([5]; HMC3 cells, 10 uM compound): 38.6 % control
2. Nuclear Area (% Control) ([5]; HMC3 cells, 10 uM compound): 85.2 % Control
3. Nuclear DNA Intensity (% control) ([5]; HMC3 cells, 10 uM compound): 178.5 % control
Reported on-target biochemical potency ([1]; target MERTK, ref PubMed 25068800, 27649555): 0.74 nM
solubility kinetic [2]: 43.4 µM (≈ 20.7 µg/mL)
Inhibition of mouse microglial phagocytosis at 10 μM (<70% control) ([6]; 10 μM, BV2): Y (The compound was found to inhibit phagocytosis (response threshold: <70% control) when murine immortalized microglial cells were dosed at 10 μM (Y: yes))
phagocytosis in mouse microglial cells (< 70% control inhibition, > 150% control stimulation) ([6]; BV2, 10 μM, pHrodo-myelin): inhibited
4. Phagocytosis (% control) ([6]; BV2 cells, 10 uM compound, 48 hours treatment, pHrodo-myelin final 20 hours): 0.168 % control
Inhibition of human microglial phagocytosis at 10 μM (<70% control) ([3]; 10 μM, HMC3): Y (The compound was found to inhibit phagocytosis (response threshold: <70% control) when human immortalized microglial cells were dosed at 10 μM (Y: yes))
phagocytosis in human microglial cells (< 70% control inhibition, > 150% control stimulation) ([3]; HMC3, 10 μM, pHrodo-myelin): inhibited
4. Phagocytosis (% control) ([3]; HMC3 cells, 10 uM compound, 48 hours treatment, pHrodo-myelin final 20 hours): 1.1 % control

solubility kinetic [2]: 6.5 µM (≈ 3.19 µg/mL)
Compound: O=C(Cn1cc(S(=O)(=O)N2CCCC2)ccc1=O)c1ccc(-c2cccc(C(F)(F)F)c2)cc1 [UNC8367A, reference compound]
Mouse microglial cytotoxicity at 10 μM (<70% control) ([4]; BV2, 10 μM): Y (The compound was found to be cytotoxic (cell count threshold: <70% control) when murine immortalized microglial cells were dosed at 10 μM (Y: yes))
1. Cell count (% control) ([4]; BV2, compound 10 uM): 56.7 % control
2. Nuclear Area (% Control) ([4]; BV2, compound 10 uM): 109.8 % Control
3. Nuclear DNA Intensity (% control) ([4]; BV2, compound 10 uM): 118.7 % control
1. Cell count (% control) ([5]; HMC3, compound 10 uM): 109.8 % control
2. Nuclear Area (% Control) ([5]; HMC3, compound 10 uM): 95.2 % Control
3. Nuclear DNA Intensity (% control) ([5]; HMC3, compound 10 uM): 108.6 % control
Reported on-target biochemical potency ([1]; gene target DOCK1, ref PubMed 28467910, 29432733): 8400 nM
Stimulation of mouse microglial phagocytosis at 10 μM (>150% control) ([6]; BV2, 10 μM): Y (The compound was found to stimulate phagocytosis (response threshold: >150% control) when murine immortalized microglial cells were dosed at 10 μM (Y: yes))
4. Phagocytosis (% control) ([6]; BV2, compound 10 uM, pHrodo-myelin): 408.0 % control
phagocytosis in human microglial cells (< 70% control inhibition, > 150% control stimulation) ([3]; HMC3, 10 μM, pHrodo-myelin): stimulatory
4. Phagocytosis (% control) ([3]; HMC3, compound 10 uM, pHrodo-myelin): 146.9 % control

Source: publication PMC9019904, “AD Informer Set: Chemical tools to facilitate Alzheimer's disease drug discovery” (Alzheimer's & Dementia : Translational Research & Clinical …, 2022)
